Data as given in patent publication EP2886531B1, “Aspartic acid derivatives” (Merck Patent GmbH, priority 2013, dated 2015).

What was measured:
[1] = Prolonged piperidine treatment of VKDNYI peptide resin (aspartimide formation, Asp-Asn motif); assay type: physicochemical
Description: (§1) Automated peptide synthesis, piperidine treatments of the resin samples and final TFA cleavages are performed as described in the protocols of example 4. In addition, 50 mg peptide resin samples are treated with a solution of DBU/piperidine/DMF (1:19:79) over 225 minutes to investigate the aspartimide formation at harsher Fmoc deprotection conditions often used for complete Fmoc removals in aggregation prone sequences.
(§2) The resulting peptide samples are analysied and all relevant impurities identified by UPLC-MS analysis (Xevo Waters Q-TOF-1, lock mass = 556.277 (leu-enkephaline), LC-conditions: CHS 18 1,7 µm (100x2.1 mm) at 40°C; water acetonitrile gradient of 5% to 35 % B over 10 min where buffer A is 0.1 % formic acid in water and buffer B is 0.1 % formic acid in acetonitrile, flow 0.6 ml/min).
In table 2 the amounts of by-products formed after the prolonged exposure of the peptide resins to piperidine (110 Fmoc removal cycles) are summarized for all side-chain protections used in this invention. […] Table 2: Results after 110 Fmoc removal cycles using piperidine, target peptide = VKDNYI, the aspartimide (Asu) derived by products are the aspartimide itself and the sum of piperidides

[2] = Prolonged DBU treatment of VKDNYI peptide resin (aspartimide formation); assay type: physicochemical
Description: as §1, §2
In table 3 the amounts of by-products formed after prolonged DBU treatments are summarized for all side-chain protections used in this invention. […] Since the DBU mediated Fmoc removals are much quicker than the piperidine mediated, this experiment again represents a Fmoc SPPS assembly of an 100mer after introducing the aspartic acid residue using exclusively DBU for Fmoc cleavage. Table 3: Results after 110 Fmoc removal cycles using DBU, target peptide = VKDNYI, the aspartimide (Asu) derived by-products are the aspartimide itself and the sum of piperidides

[3] = Prolonged piperidine treatment of VKDRYI peptide resin (aspartimide formation, Asp-Arg motif); assay type: physicochemical
Description: (§3) Automated peptide synthesis, piperidine treatments of the resin samples and final TFA cleavages are performed as described in the protocols of example 4. In addition, to evaluate the advantage of the protecting groups used in this invention in heat accelerated SPPS we treat 50 mg peptide resin samples with a solution of 20% piperidine in DMF at 60°C over 200 minutes. Microwave assisted peptide synthesis conditions are often used to shorten peptide synthesis times and increase coupling reaction and Fmoc deprotection.
(§4) In table 4 the amounts of by-products formed after the prolonged exposure of the peptide resins to piperidine (110 Fmoc removal cycles) are summarized for all side-chain protections used in this invention. Table 4: Results after 110 Fmoc removal cycles using piperidine, target peptide sequence = VKDRYI, the aspartimide (Asu) derived by-products are the aspartimide itself and the sum of piperidides

[4] = Prolonged piperidine treatment at 60°C of VKDRYI peptide resin (aspartimide formation); assay type: physicochemical
Description: as §3
The application of microwave heating to SPPS is accelerating coupling and deprotection reactions leading to shorter cycle times, higher repetitive yields, and ultimately purer peptides. On the other hand, microwave energy can also lead to increased levels of aspartimide by-products. To overcome that drawback we evaluated the advantage of the side-chain protections used in this invention by exposing the peptide resins to Fmoc removal cycles at 60 degrees Celsius.
as §4, with “5” for “4”, “at 60 degree Celsius (100” for “(110”, “invention. […]” for “invention.”, “5:” for “4:”, “100” for “110”, “piperidine at 60°C,” for “piperidine,”

[5] = Prolonged treatment of VKDGYI peptide resin with 1 M Oxyma Pure and 20 % piperidine (aspartimide formation); assay type: physicochemical
Description: [drawing 14] 50 mg samples of the corresponding aspartic acid derivatives of example 4 are treated over 18 hours with a solution of 1 M Oxyma Pure and 20 % piperidine in dimethylformamide. The peptides are cleaved off the resin with 95 % TFA and analysed with HPLC as well as MS to identify all aspartimide related products (conditions see example 4). The results are summarized in table 6: Table 6: Results after 110 Fmoc removal cycles using an acidic modifier in the piperidine mediated Fmoc removal cocktails, target peptide = VKDG YI, the aspartimide derived by-products are the aspartimide itself and the sum of piperidides

[6] = Prolonged piperidine treatment of VKDGYI peptide resin (aspartimide formation, Asp-Gly motif)
[7] = VKDNYI, piperidine, 110 Fmoc removal cycles
[8] = VKDNYI, DBU/piperidine/DMF (1:19:79), 225 minutes
[9] = VKDRYI, 110 Fmoc removal cycles
[10] = VKDRYI, 20% piperidine in DMF at 60°C, 200 minutes
[11] = VKDGYI, 1 M Oxyma Pure in 20 % piperidine

CCCC(CCC)(CCC)OC(=O)C[C@H](NC(=O)OCC1c2ccccc2-c2ccccc21)C(=O)O [Php, (2S)-N-((9H-fluoren-9-ylmethyloxy)carbonyl)aspartic acid-4-(4-(n-propyl)hept-4-yl) ester]
Half-life in cycles [1]: 800 cycles
Asu per 10' cycle ([1]; VKDNYI, piperidine): 0.09
D/L-Asu [%] [1, 7]: 1.0%
piperidides [%] [1, 7]: 8.2%
target [%] ([1]; target peptide VKDNYI, piperidine, 110 Fmoc removal cycles): 90.8%
Half-life in cycles [2]: 192 cycles
Asu per 2' cycle ([2]; VKDNYI, DBU): 0.4
D/L-Asu [%] [2, 8]: 3.3%
piperides [%] [2, 8]: 25.7%
target [%] ([2]; target peptide VKDNYI, DBU/piperidine/DMF (1:19:79) over 225 minutes, 110 Fmoc removal cycles): 71.0%
Asu per 10' cycle ([3]; VKDRYI): 0.08
Half-life in cycles ([3]; VKDRYI): 845 cycles
D/L-Asu [%] [3, 9]: 3.2%
piperidides [%] [3, 9]: 5.5%
target [%] ([3]; target peptide VKDRYI, 110 Fmoc removal cycles): 91.3%
Half-life in cycles [4]: 532 cycles
D/L-Asu [%] [4, 10]: 7.1%
piperidides [%] [4, 10]: 5.1%
Asu per 10' cycle ([4]; VKDRYI, piperidine at 60°C): 0.1
target [%] ([4]; target peptide VKDRYI, 20% piperidine in DMF at 60°C over 200 minutes, 100 Fmoc removal cycles): 87.8%
aspartimide side reaction ([5]; Asp-Gly sequence, Fmoc removal solution of 1 M Oxyma Pure in piperidine/DMF 1:4): nearly inhibits the apartimide side reaction
aspartimide derived by-products per Fmoc removal [5, 11]: 0.05%
half-life [5, 11]: greater than 1500 cycles
Asu per 10' cycle ([5]; VKDGYI, Oxyma Pure +): 0.04
Asu [%] ([5]; VKDGYI, Oxyma Pure +, 18 hours): 1.3%
piperidides [%] ([5]; VKDGYI, Oxyma Pure +, 18 hours): 3.3%
target [%] ([5]; VKDGYI, Oxyma Pure +: 1 M Oxyma Pure and 20 % piperidine in dimethylformamide, 18 hours): 95.4%
half-life of the target peptide increased, in respect of Mpe ([6]; VKDGYI, Asp-Gly sequence, relative to Mpe protection): 4 fold
half-life of the target peptide increased, instead of tBu ([6]; VKDGYI, Asp-Gly sequence, relative to tBu protection): more than 10 fold
Asu per 10' cycle [%] ([6]; VKDGYI, 20 % piperidine in dimethylformamide): 0.2%
Asu [%] ([6]; VKDGYI, 20 % piperidine in dimethylformamide, 18 hours, aspartimide): 2.9%
piperidides [%] ([6]; VKDGYI, 20 % piperidine in dimethylformamide, 18 hours, sum of piperidides): 16.5%
Asu [%] ([6]; VKDGYI, Oxyma Pure -): 2.9%
Asu per 10' cycle ([6]; VKDGYI, Oxyma Pure -): 0.2
piperidides [%] ([6]; VKDGYI, Oxyma Pure -): 16.5%
target [%] ([6]; VKDGYI, Oxyma Pure -: 20 % piperidine only, 18 hours (as Table 1)): 80.6%
target [%] ([6]; target peptide VKDGYI, 20 % piperidine in dimethylformamide over 18 hours, 110 Fmoc removal cycles): 80.6%
